From patent publication US20250025465A1, “WT-IDH1 INHIBITION USING A COVALENT AND BRAIN-PENETRANT SMALL MOLECULAR INHIBITOR FOR FERROPTOSIS INDUCTION IN HIGH-GRADE GLIOMA” (Northwestern University, priority 2021, published 2025)
Entries after “also recorded” stand apart in the source; their conditions may differ. Where two headings read alike, the source gives them in different places.

Key:
[1] = tested on: patient-derived HGG cells; assay: growth and cell death in patient-derived HGG cells; type: cell-based
Text: (§1) As these mt-IDH1-specific inhibitors recognize an allosteric site within the enzyme dimerization domain, many of these compounds show ‘off-target’ effect against wt-IDH1, as elucidated in cell-free enzyme repression assays.

[2] = in vivo effects of mt-IDH1 inhibitors in HGG
Text: as §1

wt-IDH1 [3] = molecular target: T1, wt-IDH1 (Homo sapiens, UniProt O75874); assay: cell-free wt-IDH1 enzyme inhibition; type: biochemical; settings: read-out: EC50, blocks wt-IDH1
Text: (§2) A therapeutic strategy for the pharmacological inhibition of wt-IDH1 has been devised.
(§3) The compound 13i was developed using a high-throughput screen of a proprietary library, which encompasses 750,000 compounds. During the screen, the investigators identified a hit series, centered around compound wt-IDH1i-1, which contained a large cluster of α,β-unsaturated enones^9. As indicated by the wt-IDH1: wt-IDH1i-1 crystal structure, wt-IDH1-1i bound to a fully closed wt-IDH1 enzyme and competed with NADPH for access to the wt-IDH1 active site via formation of a covalent adduct and the […] trapping of H315 located within the NAPDH binding site^9. […] Blastp searches identified wt-IDH2 as the only NADPH-dependent enzyme that contained an NADPH binding site with significant similarity to the NADPH binding pocket found in wt-IDH1. […] Of note, while H315 and D375 are conserved between wt-IDH1 and wt-IDH2, other important amino acids, including those adjacent to D375 that form a lipophilic groove (K374/L383/A378) required for 13i binding are different, and are likely to mediate compound selectivity.
Target sequence in this assay (O75874 whole entry): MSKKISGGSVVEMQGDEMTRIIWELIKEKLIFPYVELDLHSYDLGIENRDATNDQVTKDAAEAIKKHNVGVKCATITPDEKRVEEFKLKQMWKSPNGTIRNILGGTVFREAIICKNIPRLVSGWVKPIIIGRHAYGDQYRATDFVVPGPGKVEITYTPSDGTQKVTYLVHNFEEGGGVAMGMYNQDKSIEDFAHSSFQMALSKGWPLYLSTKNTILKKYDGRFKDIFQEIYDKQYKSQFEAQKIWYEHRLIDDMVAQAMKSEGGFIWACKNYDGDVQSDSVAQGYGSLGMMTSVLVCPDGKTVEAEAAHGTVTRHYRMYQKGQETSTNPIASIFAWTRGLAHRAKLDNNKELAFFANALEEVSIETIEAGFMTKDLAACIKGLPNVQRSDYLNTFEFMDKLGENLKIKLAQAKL

recombinant wt-IDH2 = molecular target: T2, recombinant wt-IDH2 (Homo sapiens, UniProt P48735); assay: NADPH production by recombinant wt-IDH2; type: biochemical; settings: FIG. 6
T2 sequence (P48735 40-452): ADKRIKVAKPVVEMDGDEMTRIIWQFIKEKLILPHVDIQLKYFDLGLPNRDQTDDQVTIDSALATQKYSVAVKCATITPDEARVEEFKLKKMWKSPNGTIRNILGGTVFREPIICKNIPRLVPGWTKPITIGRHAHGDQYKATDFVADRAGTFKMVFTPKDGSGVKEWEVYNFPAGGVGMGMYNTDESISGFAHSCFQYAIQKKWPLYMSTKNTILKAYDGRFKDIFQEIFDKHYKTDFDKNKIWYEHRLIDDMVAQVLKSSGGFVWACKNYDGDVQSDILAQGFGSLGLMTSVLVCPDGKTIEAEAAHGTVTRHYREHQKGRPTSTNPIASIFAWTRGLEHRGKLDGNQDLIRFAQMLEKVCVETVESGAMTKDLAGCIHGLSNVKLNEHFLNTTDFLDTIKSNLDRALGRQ
Text: FIG. 6. wt-IDH1i-13 is a selective covalent wt-IDH1 inhibitor.
as §3

HGG glioma cells = assay: SYTOX green staining of glioma cells (plasma membrane rupture, ferroptosis); type: cell-based; settings: for ferroptosis / plasma membrane rupture (SYTOX green positivity): compared to vehicle control, FIG. 11; for rescue of 13i treatment effect by co-treatment: co-treatment with 13i, SYTOX green, FIG. 11A-C
HGG PDX = assay: adult HGG PDX model treated with 13i and RT; type: in vivo, mice; settings: for enhancement of RT anti-tumor effect: i.p. administration, RT 2 Gy x 5
Text: (§4) (A). Treatment schedule. (B). […]. (C). Kaplan-Meyer survival benefit analysis. (D) H&E stainings of normal brain from PDX mice treated with RT+13i. *p<0.05.
(§5) . Toxicity to normal brain structures was not observed, as indicated by H&E stainings of tumor-adjacent normal cortex, hippocampus and cerebellum (FIG. 12E).

[4] = H&E staining of normal brain from PDX mice treated with RT+13i; type: in vivo; settings: H&E of tumor-adjacent normal cortex, hippocampus and cerebellum
Text: as §4, §5

[5] = see Chung et al.; cited from earlier work
wt-IDH1 [6] = molecular target: T1, wt-IDH1; assay: cellular wt-IDH1 inhibition; type: cell-based; set-up: endogenous in cells
Text: as §2
Target sequence in this assay (O75874 2-414 limits assumed): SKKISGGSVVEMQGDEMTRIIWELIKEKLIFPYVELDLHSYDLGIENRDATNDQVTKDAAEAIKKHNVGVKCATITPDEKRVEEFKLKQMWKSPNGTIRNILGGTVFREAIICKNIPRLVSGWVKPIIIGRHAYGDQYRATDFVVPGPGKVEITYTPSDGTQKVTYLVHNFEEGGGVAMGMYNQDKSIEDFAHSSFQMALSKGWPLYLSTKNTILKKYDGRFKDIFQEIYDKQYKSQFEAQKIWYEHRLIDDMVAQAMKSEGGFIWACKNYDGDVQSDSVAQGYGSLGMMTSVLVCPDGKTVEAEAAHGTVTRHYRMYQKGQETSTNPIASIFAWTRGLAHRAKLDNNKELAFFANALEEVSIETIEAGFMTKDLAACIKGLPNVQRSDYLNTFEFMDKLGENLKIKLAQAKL

U87MG cells = assay: clonogenic growth assay, RT enhancement upon wt-IDH1 knockdown; type: cell-based; settings: incubation with antioxidant precursor, FIG. 5A
Procedure: FIG. 5. wt-IDH1 inactivation enhances RT anti-tumor effect (A). RT enhancement ratio, as assessed via clonogenic growth assay in U87MG cells, upon genetic wt-IDH1inactivation, in the presence or absence of the ROS scavenger N-acetyl […] (NAC). (B). wt-IDH1 in doxy-treated xenogafts. (C). Tumor volume in mice subcutaneously implanted with U87MG cells carrying a doxy-inducible shIDH1 were treated with doxy and irradiated with a total of 14 Gy administered in 7 fractions of 2 Gy, and tumor volumes were measured. *p<0.05. (D.) Kaplan-Meyer estimates for tumor tripling, *p<0.005 vs. control; **p<0.001 vs. control, RT and doxy. […] Knockdown of wt-IDH1 decreased HGG cell line NADPH concentrations by 50-60%, and similarly depleted numerous NADPH-dependent metabolites, including the antioxidant glutathione (GSH). […] To determine whether combining RT and wt-IDH1 knockdown had beneficial anti-HGG effects in vivo, we established flank xenografts carrying a doxycycline (doxy)-inducible shRNA directed against wt-IDH1. A flank model was used due to the variable CNS penetrance of doxy. Immunoblotting confirmed that administration of doxy had the intended effects on wt-IDH1 expression in both inducible shIDH1 and shCo xenografts (FIG. 5B).

wt-IDH1 [7] = molecular target: T1, wt-IDH1; settings: covalent engagement with the NADPH pocket; from the screen of Jakob et al.; read-out: cell-free EC50; cited from earlier work
Target sequence in this assay (O75874 whole entry): as the sequence (O75874 whole entry) above

## COc1c(C)cc(NC(=O)c2nn(Cc3ccc(F)cc3)c3c2CN(C(=O)c2ccc[nH]2)C[C@]3(C)C(N)=O)cc1C [GSK864]
[1]
  drug concentrations sufficient to impact growth and cell death: in the high micromolar range
[2]
  in vivo effects: moderate

## C[C@@H]1C(=O)C(C#N)=C[C@]2(c3ccccc3)c3nc(Nc4ccccc4)ncc3CC[C@@H]12 [13i, (6aS,7S,10aR)-2-anilino-7-methyl-8-oxo-10a-phenyl-5,6,6a,7-tetrahydrobenzo[h] quinazoline-9-carbonitrile]
wt-IDH1 [3]
  EC50: 14 nM
Recombinant wt-IDH2
  fold higher EC50 against recombinant wt-IDH2 compared to wt-IDH1: 100 fold
HGG glioma cells
  ferroptosis / plasma membrane rupture (SYTOX green positivity): induced plasma membrane rupture; also recorded: promotes ferroptosis
HGG glioma cells; listed as wt-DIH1i-13
  ferroptosis / plasma membrane rupture (SYTOX green positivity): promotes ferroptosis
HGG PDX; i.p. 10 mg/kg M-F, in combination with RT 2 Gy x 5, 10 mg/kg
  tumor volume / progression (bioluminescence): highly reduced tumor volume; also recorded: reduces the progression
HGG PDX; i.p. 10 mg/kg M-F, in combination with RT 2 Gy x 5, versus vehicle, 10 mg/kg
  survival: increased survival; also recorded: extends the survival
HGG PDX
  enhancement of RT anti-tumor effect: enhancement of RT anti-tumor effect
HGG PDX; listed as wt-DIH1i-13
  enhancement of RT anti-tumor effect: enhances RT anti-tumor effect in vivo
[4]
  toxicity to normal brain structures: not observed
[5]
  brain penetrance: brain-penetrant
wt-IDH1 [6]
  IC50: 800 to 1700 nM

## CC(=O)N[C@@H](CS)C(=O)O [NAC, N-acetyl cysteine, reference compound]
HGG glioma cells
  rescue of 13i treatment effect by co-treatment: rescued 13i treatment effect
U87MG cells
  reversal of radiosensitization conferred by wt-IDH1 knockdown: nearly completely reversed

## C[C@@H]1C(=O)C(C#N)=C[C@]2(C)c3nc(Nc4ccccc4)ncc3CC[C@@H]12 [wt-IDH1i-1, (6aS,7S,10aR)-2-anilino-7,10a-dimethyl-8-oxo-5,6,6a,7-tetrahydrobenzo[h] quinazoline-9-carbonitrile]
wt-IDH1 [7]
  EC50: 49 nM

## CCOC(=O)c1ccc(NC2CCCCC2)c(N)c1 [ferrostatin, reference compound]
HGG glioma cells
  rescue of 13i treatment effect by co-treatment: rescued 13i treatment effect
